# How the values were obtained:
# [1] = test system: MCF-7 (estrogen receptor positive breast cancer cells); test: Anti-proliferation assay (MTS/PMS, 72 h), MCF-7; format: cell-based; settings: Homo sapiens
# Experimental: (§1) Cells were maintained in a 1:1 mixture of Advanced DMEM/F12 (Gibco) supplemented with non-essential amino acids, L-glutamine (2 mM), streptomycin (500 μg/mL), penicillin (100 units/mL), and 10% FBS. Cells were grown to confluence in a humidified atmosphere (37° C., 5% CO2), seeded (2000/well, 100 μL) in 96-well plates, and allowed to attach overnight. Compound at varying concentrations in DMSO (1% DMSO final concentration) was added, and cells were returned to the incubator for 72 h. At 72 h, the number of viable cells was determined using an MTS/PMS cell proliferation kit (Promega) per the manufacturer's instructions. Cells incubated in 1% DMSO were used at 100% proliferation, and values were adjusted accordingly. IC50 values were calculated from separate experiments performed in triplicate using GraphPad Prism.
# (§2) Anti-proliferative studies with the compounds described herein were performed against the SKBr3 (estrogen receptor negative, HER2 over-expressing breast cancer cells) and MCF-7 (estrogen receptor positive breast cancer cells) breast cancer cell lines. […] In some embodiments, in contrast to the novobiocin derivatives, which usually manifest better anti-proliferative activities against the SKBr3 cell line, the biphenyl derivatives described herein were more efficacious against the MCF-7 cell line. In general, all substitutions on the phenyl ring were determined to be beneficial, consistent with the existence of a hydrophobic pocket in this region of the Hsp90 C-terminal binding site.
# [2] = test system: SKBr3 (estrogen receptor negative, HER2 over-expressing breast cancer cells); test: Anti-proliferation assay (MTS/PMS, 72 h), SKBr3; format: cell-based; settings: Homo sapiens
# Experimental: as §1, §2
# [3] = MCF7, Table 3, substituted para-para biphenyl core
# [4] = SK-BR-3, Table 3, substituted para-para biphenyl core
# [5] = MCF7, Table 2, para-meta biphenyl core with substituted benzylamide
# [6] = SK-BR-3, Table 2, para-meta biphenyl core with substituted benzylamide
# [7] = MCF7, Table 7, para-para biphenyl core with modified ether groups
# [8] = SK-BR-3, Table 7, para-para biphenyl core with modified ether groups
# [9] = MCF7, Table 6, para-para biphenyl core with substituted benzylamide
# [10] = SK-BR-3, Table 6, para-para biphenyl core with substituted benzylamide
# [11] = MCF7, Table 8, para-para biphenyl core with substituted biphenylamide group
# [12] = SK-BR-3, Table 8, para-para biphenyl core with substituted biphenylamide group
# [13] = MCF7, Table 1, ortho, meta and para biphenyl cores
# [14] = SK-BR-3, Table 1, ortho, meta and para biphenyl cores
Compound,"IC50 [1, 3]","IC50 [2, 4]","IC50 [1, 9]","IC50 [2, 10]",also measured
"COc1cccc(-c2cc(C(=O)Nc3ccc(-c4ccc(OC5CCN(C)CC5)cc4)c(C)c3)ccc2OC)c1 [Compound 29c, 3′,6-dimethoxy-N-(2-methyl-4′-((1-methylpiperidin-4-yl)oxy)-[1,1′-biphenyl]-4-yl)-[1,1′-biphenyl]-3-carboxamide]",1570 ± 560 nM,970 ± 10 nM,–,–,–
"Cc1cccc(C(=O)Nc2cccc(-c3ccc(OC4CCN(C)CC4)cc3)c2)c1 [Compound 6d, 3-methyl-N-(4′-((1-methylpiperidin-4-yl)oxy)-[1,1′-biphenyl]-3-yl)benzamide]",–,–,–,–,"IC50 [1, 5]: 7730 ± 1900 nM; IC50 [2, 6]: 11400 ± 1370 nM"
COc1ccc(C(=O)Nc2ccc(Nc3ccc(OC4CCN(C)CC4)cc3)cc2)cc1 [drawing 159],–,–,–,–,"IC50 ([1]; MCF7, Table 11, heteroatom linked biphenyl core): 2830 ± 1870 nM; IC50 ([2]; SK-BR-3, Table 11, heteroatom linked biphenyl core): 18200 ± 2190 nM"
"COc1cccc(-c2cc(C(=O)Nc3ccc(-c4ccc(OC5CCN(C)CC5)cc4)c([N+](=O)[O-])c3)ccc2OC)c1 [Compound 34c, 3′,6-dimethoxy-N-(4′-((1-methylpiperidin-4-yl)oxy)-2-nitro-[1,1′-biphenyl]-4-yl)-[1,1′-biphenyl]-3-carboxamide]",3320 ± 250 nM,2480 ± 770 nM,–,–,–
"COc1cccc(-c2cc(C(=O)Nc3ccc(-c4ccc(OCCC5CCCCN5)cc4)cc3)ccc2OC)c1 (stereo not shown) [Compound 56a, 3′,6-dimethoxy-N-(4′-(2-(piperidin-2-yl)ethoxy)-[1,1′-biphenyl]-4-yl)-[1,1′-biphenyl]-3-carboxamide]",–,–,–,–,"IC50 [1, 7]: 950 nM; IC50 [2, 8]: 850 ± 200 nM"
"COc1cccc(-c2cc(C(=O)Nc3ccc(-c4ccc(OC5CCN(C)CC5)cc4NC(C)=O)cc3)ccc2OC)c1 [Compound 39b, N-(2′-acetamido-4′-((1-methylpiperidin-4-yl)oxy)-[1,1′-biphenyl]-4-yl)-3′,6-dimethoxy-[1,1′-biphenyl]-3-carboxamide]",1360 ± 230 nM,3390 ± 660 nM,–,–,–
"Cc1ccc(C(=O)Nc2ccc(-c3ccc(OC4CCN(C)CC4)cc3)cc2)cc1Cl [Compound 41k, 3-chloro-4-methyl-N-(4′-((1-methylpiperidin-4-yl)oxy)-[1,1′-biphenyl]-4-yl)benzamide]",–,–,2280 ± 490 nM,1960 ± 240 nM,–
"COc1cccc(-c2cc(C(=O)Nc3ccc(-c4ccc(OC5CCN(C)CC5)cc4)cc3[N+](=O)[O-])ccc2OC)c1 [Compound 34d, 3′,6-dimethoxy-N-(4′-((1-methylpiperidin-4-yl)oxy)-3-nitro-[1,1′-biphenyl]-4-yl)-[1,1′-biphenyl]-3-carboxamide]",1150 ± 10 nM,920 nM,–,–,–
"COc1cccc(-c2cc(C(=O)Nc3ccc(-c4ccc(OCCCN(C)C)cc4)cc3)ccc2OC)c1 [Compound 56c, N-(4′-(3-(dimethylamino)propoxy)-[1,1′-biphenyl]-4-yl)-3′,6-dimethoxy-[1,1′-biphenyl]-3-carboxamide]",–,–,–,–,"IC50 [1, 7]: 870 ± 40 nM; IC50 [2, 8]: 1020 ± 50 nM"
CCCOc1ccc(C(=O)Nc2ccc(-c3ccc(OC4CCN(C)CC4)cc3)cc2)cc1-c1cccc(OC)c1,–,–,–,–,"IC50 ([1]; MCF7, Table 10, longer alkyl chain substituted biphenyl core): 1660 ± 120 nM; IC50 ([2]; SK-BR-3, Table 10, longer alkyl chain substituted biphenyl core): 1030 ± 40 nM"
"CN1CCC(Oc2ccc(-c3ccc(NC(=O)c4ccc(Br)cc4)cc3)cc2)CC1 [Compound 41c, 4-bromo-N-(4′-((1-methylpiperidin-4-yl)oxy)-[1,1′-biphenyl]-4-yl)benzamide]",–,–,520 ± 150 nM,520 ± 210 nM,–
"Cc1ccc(C(=O)Nc2ccc(-c3ccc(OC4CCN(C)CC4)cc3)cc2)cc1I [Compound 41m, 3-iodo-4-methyl-N-(4′-((1-methylpiperidin-4-yl)oxy)-[1,1′-biphenyl]-4-yl)benzamide]",–,–,1170 ± 200 nM,930 ± 200 nM,–
"CN1CCC(Oc2ccc(-c3ccc(NC(=O)c4ccc(I)cc4)cc3)cc2)CC1 [Compound 41d, 4-iodo-N-(4′-((1-methylpiperidin-4-yl)oxy)-[1,1′-biphenyl]-4-yl)benzamide]",–,–,580 ± 10 nM,310 ± 90 nM,–
"COc1ccc(C(=O)Nc2ccc(-c3ccc(OC4CCN(C)CC4)cc3)cc2)cc1-c1ccc(OC(C)=O)cc1 [Compound 49e, 2′-methoxy-5′-((4′-((1-methylpiperidin-4-yl)oxy)-[1,1′-biphenyl]-4-yl)carbamoyl)-[1,1′-biphenyl]-4-yl acetate]",–,–,–,–,"IC50 [1, 11]: 640 ± 80 nM; IC50 [2, 12]: 140 ± 10 nM"
"COc1cccc(C(=O)Nc2ccc(-c3ccc(OC4CCN(C)CC4)cc3)cc2)c1 [Compound 41i, 3-methoxy-N-(4′-((1-methylpiperidin-4-yl)oxy)-[1,1′-biphenyl]-4-yl)benzamide]",–,–,5310 ± 700 nM,2870 ± 510 nM,–
"COc1ccc(C(=O)Nc2ccc(-c3ccc(OC4CCN(C)CC4)cc3)cc2)cc1-c1ccc(O)cc1 [Compound 50b, 4′-hydroxy-6-methoxy-N-(4′-((1-methylpiperidin-4-yl)oxy)-[1,1′-biphenyl]-4-yl)-[1,1′-biphenyl]-3-carboxamide]",–,–,–,–,"IC50 [1, 11]: 500 ± 10 nM; IC50 [2, 12]: 130 ± 20 nM"
"COc1cccc(-c2cc(C(=O)Nc3ccc(-c4ccc(OC5CCN(C)CC5)cc4)cc3Cl)ccc2OC)c1 [Compound 29l, N-(3-chloro-4′-((1-methylpiperidin-4-yl)oxy)-[1,1′-biphenyl]-4-yl)-3′,6-dimethoxy-[1,1′-biphenyl]-3-carboxamide]",1800 ± 190 nM,4750 nM,–,–,–
"COc1cccc(-c2cc(C(=O)Nc3ccc(-c4ccc(OC5CCN(C)CC5)cc4[N+](=O)[O-])cc3)ccc2OC)c1 [Compound 34b, 3′,6-dimethoxy-N-(4′-((1-methylpiperidin-4-yl)oxy)-2′-nitro-[11′-biphenyl]-4-yl)-[1,1′-biphenyl]-3-carboxamide]",1300 ± 120 nM,1070 nM,–,–,–
"CN1CCC(Oc2ccc(-c3cccc(NC(=O)C45CC6CC(CC(C6)C4)C5)c3)cc2)CC1 [Compound 61a, N-(4′-((1-methylpiperidin-4-yl)oxy)-[1,1′-biphenyl]-3-yl)adamantane-1-carboxamide]",–,–,–,–,"IC50 [1, 13]: 770 ± 80 nM; IC50 [2, 14]: 1250 ± 40 nM"
"COc1cccc(-c2cc(C(=O)Nc3ccc(-c4ccc(OC5CCN(C)CC5)c(Cl)c4)cc3)ccc2OC)c1 [Compound 29i, N-(3′-chloro-4′-((1-methylpiperidin-4-yl)oxy)-[1,1′-biphenyl]-4-yl)-3′,6-dimethoxy-[1,1′-biphenyl]-3-carboxamide]",1480 ± 120 nM,1840 ± 570 nM,–,–,–
"COc1cccc(-c2cc(C(=O)Nc3ccc(-c4ccc(OC5CCN(C)CC5)cc4)cc3NC(C)=O)ccc2OC)c1 [Compound 39d, N-(3-acetamido-4′-((1-methylpiperidin-4-yl)oxy)-[1,1′-biphenyl]-4-yl)-3′,6-dimethoxy-[1,1′-biphenyl]-3-carboxamide]",1660 ± 590 nM,3510 ± 560 nM,–,–,–
"COc1cccc(-c2cc(C(=O)Nc3ccc(-c4ccc(OC5CCN(C)CC5)cn4)cc3)ccc2OC)c1 [Compound 19b, 3′,6-dimethoxy-N-(4-(5-((1-methylpiperidin-4-yl)oxy)pyridin-2-yl)phenyl)-[1,1′-biphenyl]-3-carboxamide]",–,–,–,–,"IC50 ([1]; MCF7, Table 4, para-para heteroatom substituted biphenyl core): 1300 ± 150 nM; IC50 ([2]; SK-BR-3, Table 4, para-para heteroatom substituted biphenyl core): 1910 ± 210 nM"
"Cc1ccc(C(=O)Nc2ccc(-c3ccc(OC4CCN(C)CC4)cc3)cc2)cc1Br [Compound 41l, 3-bromo-4-methyl-N-(4′-((1-methylpiperidin-4-yl)oxy)-[1,1′-biphenyl]-4-yl)benzamide]",–,–,3350 ± 360 nM,2800 ± 180 nM,–
"COc1cccc(-c2cc(C(=O)Nc3ccc(-c4ccc(OC5CCN(C)CC5)cc4)cc3OC)ccc2OC)c1 [Compound 29h, 3′,6-dimethoxy-N-(3-methoxy-4′-((1-methylpiperidin-4-yl)oxy)-[1,1′-biphenyl]-4-yl)-[1,1′-biphenyl]-3-carboxamide]",1220 ± 40 nM,3920 ± 210 nM,–,–,–
"COc1ccc(C(=O)Nc2ccc(-c3ccc(OC4CCN(C)CC4)cc3)cc2)cc1 [Compound 41f, 4-methoxy-N-(4′-((1-methylpiperidin-4-yl)oxy)-[1,1′-biphenyl]-4-yl)benzamide]",–,–,650 ± 40 nM,490 ± 10 nM,"IC50 [1, 13]: 650 ± 40 nM; IC50 [2, 14]: 490 ± 10 nM"
"CN1CCC(Oc2ccc(-c3cccc(NC(=O)c4cccc(Cl)c4)c3)cc2)CC1 [Compound 6i, 3-Chloro-N-(4′-((1-methylpiperidin-4-yl)oxy)-[1,1′-biphenyl]-3-yl)benzamide]",–,–,–,–,"IC50 [1, 5]: 2110 ± 420 nM; IC50 [2, 6]: 4290 ± 430 nM"
"CN1CCC(Oc2ccc(-c3ccc(NC(=O)c4ccc(Cl)cc4Cl)cc3)cc2)CC1 [Compound 41p, 2,4-dichloro-N-(4′-((1-methylpiperidin-4-yl)oxy)-[1,1′-biphenyl]-4-yl)benzamide]",–,–,1370 ± 330 nM,800 ± 220 nM,–
"CN1CCC(Oc2ccc(-c3ccc(NC(=O)c4cc5ccccc5s4)cc3)cc2)CC1 [Compound 47b, N-(4′-((1-methylpiperidin-4-yl)oxy)-[1,1′-biphenyl]-4-yl)benzo[b]thiophene-2-carboxamide]",–,–,2010 ± 580 nM,1320 ± 230 nM,–
